Measurements taken from patent US11498949B2, “System and method for high-yield transient expression in mammalian cells” (LIFE TECHNLOLOGIES CORPORATION, priority 2012, dated 2022).

System: hIgG expression
Experiment: Expression enhancers in the transient transfection system, hIgG yield
Type: cell-based
Settings: enhancer added alone to transient transfection; vs. control with neither Enhancer 1 nor Enhancer 2
Source text: Components were formulated into 2 stable Enhancer solutions.

| SMILES | effect on hIgG expression |
| --- | --- |
| CCCC(CCC)C(=O)O [Enhancer 1, valproic acid] | doubles hIgG expression |
| CCC(=O)[O-].[Na+] [Enhancer 2, sodium propionate] | no strong effect alone |
